Laboratory results taken from ChEMBL document CHEMBL5725962, “Pyrazolo[1,5-A]PYRAZIN-4-YL derivatives” (2018).

Experiments:
[1] = molecular target: Tyrosine-protein kinase JAK1 (Homo sapiens, UniProt P23458); test: (§1) JAK Caliper Enzyme Assay at 1 mM ATP: Compounds were added to a 384-well plate. Reaction mixtures contained 10 mM HEPES, pH 7.4, 10 mM MgCl2, 0.01% BSA, 0.0005% Tween 20, 1 mM ATP and 1 μM peptide substrate. The JAK1 and TYK2 assays contained 1 μM of the IRStide peptide (5FAM-[…]) and the JAK2 and JAK3 assays contained 1 μM of the JAKtide peptide (FITC-[…]). The assays were initiated by the addition of 20 nM JAK1, 1 nM JAK2, 1 nM JAK or 1 nM TYK2 enzyme and were incubated at room temperature for three hours for JAK1, 60 minutes for JAK2, 75 minutes for JAK3 or 135 minutes for TYK2. Enzyme concentrations and incubation times were optimized for each new enzyme preps and were modified slightly over time to ensure 20% to 30% phosphorylation. The assays were stopped with 15 μL of 180 mM HEPES, pH 7.4, 20 mM EDTA, and 0.2% Coating Reagent 3. The assay plates were placed on a Caliper Life Science LC3000 instrument, and each well was sampled using appropriate separation conditions to measure the unphosphorylated and phosphorylated peptide.
Sequence of Tyrosine-protein kinase JAK1 (P23458 whole entry): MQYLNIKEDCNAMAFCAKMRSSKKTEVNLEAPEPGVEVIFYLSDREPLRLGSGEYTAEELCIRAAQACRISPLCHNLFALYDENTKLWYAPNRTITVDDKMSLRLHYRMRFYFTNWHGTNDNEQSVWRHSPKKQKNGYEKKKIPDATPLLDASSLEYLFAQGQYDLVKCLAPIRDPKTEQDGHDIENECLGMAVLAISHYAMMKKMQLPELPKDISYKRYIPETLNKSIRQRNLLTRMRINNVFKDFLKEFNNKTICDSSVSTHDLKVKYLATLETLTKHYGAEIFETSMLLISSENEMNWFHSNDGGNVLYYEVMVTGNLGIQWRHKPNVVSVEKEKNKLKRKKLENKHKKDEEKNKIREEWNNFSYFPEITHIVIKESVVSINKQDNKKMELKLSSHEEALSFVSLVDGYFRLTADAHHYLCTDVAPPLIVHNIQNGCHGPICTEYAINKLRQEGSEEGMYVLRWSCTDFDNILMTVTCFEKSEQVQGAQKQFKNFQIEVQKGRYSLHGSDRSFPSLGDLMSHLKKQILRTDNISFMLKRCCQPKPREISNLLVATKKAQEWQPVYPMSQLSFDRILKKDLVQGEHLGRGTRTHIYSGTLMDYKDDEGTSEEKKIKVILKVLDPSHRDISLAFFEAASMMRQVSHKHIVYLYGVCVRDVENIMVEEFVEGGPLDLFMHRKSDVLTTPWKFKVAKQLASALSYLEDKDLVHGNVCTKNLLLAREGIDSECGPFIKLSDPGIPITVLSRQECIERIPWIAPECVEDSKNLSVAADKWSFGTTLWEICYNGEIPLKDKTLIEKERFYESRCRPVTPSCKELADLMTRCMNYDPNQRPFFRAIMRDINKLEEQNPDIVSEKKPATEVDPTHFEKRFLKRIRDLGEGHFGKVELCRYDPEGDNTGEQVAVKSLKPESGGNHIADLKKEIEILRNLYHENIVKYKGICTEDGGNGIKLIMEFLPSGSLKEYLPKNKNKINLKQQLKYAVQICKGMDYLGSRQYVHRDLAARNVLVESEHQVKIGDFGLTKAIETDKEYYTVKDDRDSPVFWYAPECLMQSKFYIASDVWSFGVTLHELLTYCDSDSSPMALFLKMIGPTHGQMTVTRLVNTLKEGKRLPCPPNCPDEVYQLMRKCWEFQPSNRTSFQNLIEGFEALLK

[2] = molecular target: T1, Tyrosine-protein kinase JAK3 (Homo sapiens, UniProt P52333); test: as §1
T1 sequence (P52333 whole entry): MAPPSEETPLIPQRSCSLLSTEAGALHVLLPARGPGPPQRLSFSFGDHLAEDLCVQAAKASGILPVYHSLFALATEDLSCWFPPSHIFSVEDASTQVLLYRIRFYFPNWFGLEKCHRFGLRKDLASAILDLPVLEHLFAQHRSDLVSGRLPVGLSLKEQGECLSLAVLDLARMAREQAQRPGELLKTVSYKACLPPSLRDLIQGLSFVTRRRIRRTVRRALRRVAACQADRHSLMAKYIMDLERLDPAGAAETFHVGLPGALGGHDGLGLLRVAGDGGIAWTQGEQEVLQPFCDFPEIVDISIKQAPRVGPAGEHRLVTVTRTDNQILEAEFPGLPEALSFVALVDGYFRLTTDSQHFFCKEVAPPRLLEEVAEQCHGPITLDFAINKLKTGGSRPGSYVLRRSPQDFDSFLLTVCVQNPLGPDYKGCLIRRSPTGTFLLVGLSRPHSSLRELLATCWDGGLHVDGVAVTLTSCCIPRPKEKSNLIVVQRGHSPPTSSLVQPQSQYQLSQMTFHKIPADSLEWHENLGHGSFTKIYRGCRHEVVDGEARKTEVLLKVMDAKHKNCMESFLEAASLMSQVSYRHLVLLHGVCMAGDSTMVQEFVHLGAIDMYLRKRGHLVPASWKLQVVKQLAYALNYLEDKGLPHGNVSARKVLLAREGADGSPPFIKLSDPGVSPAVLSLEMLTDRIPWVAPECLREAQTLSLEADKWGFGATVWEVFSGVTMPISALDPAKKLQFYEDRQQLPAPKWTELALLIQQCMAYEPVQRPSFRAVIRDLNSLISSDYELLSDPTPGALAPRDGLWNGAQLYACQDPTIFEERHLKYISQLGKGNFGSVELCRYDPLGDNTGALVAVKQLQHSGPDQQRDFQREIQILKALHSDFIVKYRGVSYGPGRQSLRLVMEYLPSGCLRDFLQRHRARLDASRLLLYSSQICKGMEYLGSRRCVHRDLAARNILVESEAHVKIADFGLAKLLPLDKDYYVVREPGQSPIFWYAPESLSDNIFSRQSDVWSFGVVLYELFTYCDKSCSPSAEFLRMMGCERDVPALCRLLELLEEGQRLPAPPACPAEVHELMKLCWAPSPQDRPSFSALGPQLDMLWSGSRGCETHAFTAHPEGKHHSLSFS

[3] = molecular target: Non-receptor tyrosine-protein kinase TYK2 (Homo sapiens, UniProt P29597); test: as §1
Sequence of Non-receptor tyrosine-protein kinase TYK2 (P29597 whole entry): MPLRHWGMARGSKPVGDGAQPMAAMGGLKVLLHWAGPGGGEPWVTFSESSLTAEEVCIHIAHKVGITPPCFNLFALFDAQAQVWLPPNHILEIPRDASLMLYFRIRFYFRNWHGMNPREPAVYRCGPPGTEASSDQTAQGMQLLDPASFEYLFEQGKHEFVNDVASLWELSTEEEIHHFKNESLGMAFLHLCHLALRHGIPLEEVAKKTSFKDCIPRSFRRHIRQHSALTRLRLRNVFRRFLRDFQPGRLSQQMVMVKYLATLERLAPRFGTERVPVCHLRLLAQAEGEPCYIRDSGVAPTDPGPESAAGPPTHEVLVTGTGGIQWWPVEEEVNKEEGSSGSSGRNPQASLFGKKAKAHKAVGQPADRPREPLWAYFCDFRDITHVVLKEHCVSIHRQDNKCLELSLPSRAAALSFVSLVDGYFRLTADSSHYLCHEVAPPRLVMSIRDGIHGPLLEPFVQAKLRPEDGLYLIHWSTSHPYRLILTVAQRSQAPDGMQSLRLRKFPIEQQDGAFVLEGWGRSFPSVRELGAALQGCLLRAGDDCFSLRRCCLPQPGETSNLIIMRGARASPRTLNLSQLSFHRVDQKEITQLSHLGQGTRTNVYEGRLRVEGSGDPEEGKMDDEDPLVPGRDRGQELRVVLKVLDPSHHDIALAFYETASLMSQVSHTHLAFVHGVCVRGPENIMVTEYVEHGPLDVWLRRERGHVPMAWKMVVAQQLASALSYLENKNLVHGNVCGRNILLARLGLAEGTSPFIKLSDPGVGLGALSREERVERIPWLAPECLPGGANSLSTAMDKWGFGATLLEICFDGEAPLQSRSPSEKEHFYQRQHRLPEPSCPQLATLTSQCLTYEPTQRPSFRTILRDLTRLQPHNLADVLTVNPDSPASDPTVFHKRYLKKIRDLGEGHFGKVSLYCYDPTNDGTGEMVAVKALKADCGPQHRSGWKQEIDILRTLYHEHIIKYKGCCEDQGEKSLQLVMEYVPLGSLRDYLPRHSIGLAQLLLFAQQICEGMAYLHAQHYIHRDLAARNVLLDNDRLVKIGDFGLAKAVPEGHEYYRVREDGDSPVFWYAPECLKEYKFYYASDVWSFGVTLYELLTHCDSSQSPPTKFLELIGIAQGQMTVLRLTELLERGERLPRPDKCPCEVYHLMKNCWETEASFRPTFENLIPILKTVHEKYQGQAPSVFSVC

[4] = molecular target: Tyrosine-protein kinase JAK2 (Homo sapiens, UniProt O60674); test: Reaction mixtures contained 10 mM HEPES, pH 7.4, 10 mM MgCl2, 0.01% BSA, 0.0005% Tween 20, 1 mM ATP and 1 μM peptide substrate. […] Enzyme concentrations and incubation times were optimized for each new enzyme preps and were modified slightly over time to ensure 20% to 30% phosphorylation. The assays were stopped with 15 μL of 180 mM HEPES, pH 7.4, 20 mM EDTA, and 0.2% Coating Reagent 3. The assay plates were placed on a Caliper Life Science LC3000 instrument, and each well was sampled using appropriate separation conditions to measure the unphosphorylated and phosphorylated peptide.
Sequence of Tyrosine-protein kinase JAK2 (O60674 whole entry): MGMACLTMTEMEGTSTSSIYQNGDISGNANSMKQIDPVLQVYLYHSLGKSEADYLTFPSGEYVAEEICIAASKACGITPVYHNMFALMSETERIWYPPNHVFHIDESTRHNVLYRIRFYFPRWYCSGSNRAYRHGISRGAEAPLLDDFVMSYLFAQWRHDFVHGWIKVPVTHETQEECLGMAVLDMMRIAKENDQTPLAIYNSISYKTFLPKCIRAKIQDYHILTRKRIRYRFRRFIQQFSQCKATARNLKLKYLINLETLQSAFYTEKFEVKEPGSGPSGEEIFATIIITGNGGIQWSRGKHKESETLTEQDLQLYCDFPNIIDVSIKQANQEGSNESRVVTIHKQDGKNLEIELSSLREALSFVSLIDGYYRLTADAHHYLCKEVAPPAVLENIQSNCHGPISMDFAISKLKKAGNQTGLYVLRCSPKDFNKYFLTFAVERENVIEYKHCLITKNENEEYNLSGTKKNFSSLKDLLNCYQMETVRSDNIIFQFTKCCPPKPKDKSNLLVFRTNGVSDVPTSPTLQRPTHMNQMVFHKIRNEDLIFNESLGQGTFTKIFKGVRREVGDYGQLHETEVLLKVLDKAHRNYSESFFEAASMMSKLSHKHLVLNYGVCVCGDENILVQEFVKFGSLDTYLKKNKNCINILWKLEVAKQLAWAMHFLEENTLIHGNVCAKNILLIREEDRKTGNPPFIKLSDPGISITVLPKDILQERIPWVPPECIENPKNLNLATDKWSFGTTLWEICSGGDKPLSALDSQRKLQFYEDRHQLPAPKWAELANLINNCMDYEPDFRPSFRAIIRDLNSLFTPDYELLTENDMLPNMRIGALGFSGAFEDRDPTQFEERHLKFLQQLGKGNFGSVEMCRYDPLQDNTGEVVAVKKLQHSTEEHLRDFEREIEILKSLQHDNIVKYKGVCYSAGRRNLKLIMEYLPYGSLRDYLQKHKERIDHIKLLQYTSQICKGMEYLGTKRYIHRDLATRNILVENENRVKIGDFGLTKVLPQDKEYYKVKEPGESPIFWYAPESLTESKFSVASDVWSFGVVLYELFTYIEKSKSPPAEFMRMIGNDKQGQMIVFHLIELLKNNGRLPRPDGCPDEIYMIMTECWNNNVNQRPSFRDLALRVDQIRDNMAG

IC50 [1]: 764 nM
IC50 [2]: > 10000 nM
IC50 [3]: 24 nM
IC50 [4]: 159 nM
SMILES: Cn1cc(-c2cn3nccc3c(-c3cnn([C@]4(CC#N)C[C@@H](CC#N)C4)c3)n2)cn1
